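Tested at 5 concentrations; 48 h exposure; 96-well plates; endpoints linearly interpolated, else capped at highest concentration. At the TGI there is no net growth.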 Where a SMILES comes first, the peptide text is derived from it. The star is where a group is joined. Cbz = O=C(OCc1ccccc1)*
Assays:
Assay in all cases: NCI tumour cell line growth inhibition, 48 h
786-0 renal = tested on: 786-0 renal
DU-145 prostate = tested on: DU-145 prostate
HCC-2998 colon = tested on: HCC-2998 colon
HCT-15 colon = tested on: HCT-15 colon
HOP-62 NSCLC = tested on: HOP-62 NSCLC
HS 578T breast = tested on: HS 578T breast
HT29 colon = tested on: HT29 colon
K-562 leukemia = tested on: K-562 leukemia
KM12 colon = tested on: KM12 colon
LOX IMVI melanoma = tested on: LOX IMVI melanoma
M14 melanoma = tested on: M14 melanoma
MOLT-4 leukemia = tested on: MOLT-4 leukemia
OVCAR-5 ovarian = tested on: OVCAR-5 ovarian
PC-3 prostate = tested on: PC-3 prostate
SF-295 CNS = tested on: SF-295 CNS
SK-MEL-5 melanoma = tested on: SK-MEL-5 melanoma
SK-OV-3 ovarian = tested on: SK-OV-3 ovarian
SNB-19 CNS = tested on: SNB-19 CNS
TK-10 renal = tested on: TK-10 renal

Compound	TGI (786-0 renal) [µM]	TGI (DU-145 prostate) [µM]	TGI (HCC-2998 colon) [µM]	TGI (HCT-15 colon) [µM]	TGI (HOP-62 NSCLC) [µM]	TGI (HS 578T breast) [µM]	TGI (HT29 colon) [µM]	TGI (K-562 leukemia) [µM]	TGI (KM12 colon) [µM]	TGI (LOX IMVI melanoma) [µM]	TGI (M14 melanoma) [µM]	TGI (MOLT-4 leukemia) [µM]	TGI (OVCAR-5 ovarian) [µM]	TGI (PC-3 prostate) [µM]	TGI (SF-295 CNS) [µM]	TGI (SK-MEL-5 melanoma) [µM]	TGI (SK-OV-3 ovarian) [µM]	TGI (SNB-19 CNS) [µM]	TGI (TK-10 renal) [µM]
COc1cccc(C2c3cc4c(cc3OC(C)(N3CCCC3)C2C)OCO4)c1 (stereo not drawn)	> 100	49.6	32.8	44.2	20.6	19.9	15	> 100	17.8	25.1	13.9	> 100	47.5	62.2	73.9	14.5	41.5	> 100	37.2
O=c1oc2c/c(=C\c3ccc([N+](=O)[O-])cc3)c(=O)c3cccc1c3-2	> 100	> 100	> 100	> 100	> 100	> 100	> 100	> 100	> 100	> 100	> 100	> 100	> 100	> 100	> 100	> 100	> 100	> 100	72.1
CC(=O)NC1=N/C(=C\c2ccc(Cl)cc2)C(=O)N1/C=C1\C(=O)Oc2ccccc2C1=O	> 100	> 100	> 100	> 100	> 100	6.22	> 100	> 100	> 100	> 100	> 100	> 100	> 100	> 100	> 100	> 100	> 100	> 100	
Nc1ccccc1N=Cc1cc2cc([N+](=O)[O-])ccc2s1	29.2	36.1	54.6	> 100	31.7	41.8	> 100	35.1	> 100	97.9	82.8	13.6	> 100	30.9	> 100	> 100	29.7	46.6	29.6
CCOC(=O)/C=C(\C(=O)OCC)n1ccc(=O)n(Cc2cn(CCCCOC(C)=O)nn2)c1=O	> 51.1	45.4	41	25.3	41.2	63.1	21.7	> 34.1	31.5	48.1	54.8	9.12	31.4	36.9	> 62.1	> 54.2	> 65.5	> 55.6	13.6
CC(C)[Si]1(C(C)C)OCC2OC3(CO)C(Oc4nc(=O)ccn43)C2O[Si](C(C)C)(C(C)C)O1 (stereo not drawn)	28.9	27.7	25.4	28.5	29.2	45.9	27.2	45.5	30.8	28.7	30.4	24.8		17.7	29.6	32.9	36.3	32.7	32.1
O=C1NC(N/N=C\C(O)C(O)C(O)C(O)CO)=N/C1=C/c1ccc(Cl)cc1 (stereo not drawn)	> 100	> 100	> 100	> 100	> 100	> 100	> 100	> 100	> 100	> 100	> 100	> 100	> 100	> 100	> 100	> 100	> 100	> 100	> 100
COc1ccc2c(C(=O)c3cn(CCN4CCOCC4)c4ccccc34)cccc2c1	> 100	> 100	> 100	> 100	> 100	> 100	> 100	> 100	> 100	> 100	> 87.5	64.4	> 100	> 100	> 54.8	> 100	> 100	> 100	> 100
CC(Oc1ccc(Cl)cc1Cl)C(=O)NN1C(=O)CSC1c1ccccc1 (stereo not drawn)	> 100	> 100	> 100	> 100	> 100	> 100	> 100	> 100	> 100	> 100	> 100	> 100	> 100	> 100	> 100	> 100	> 100	> 100	> 100
CN(C)/N=C1/CCC(C(F)(F)F)(C(F)(F)F)O1	93.4	> 100	> 100	> 100	85	88.4	> 100	> 100	48.8	66.5	68.1	> 100	> 100	> 100	> 100	52.6	> 100	> 100	> 100
O=C1c2ccccc2C(=O)c2c1nc1ccccc1c2-c1cncc(-c2c3c(nc4ccccc24)C(=O)c2ccccc2C3=O)c1	67.4	16.1	49.7	9.34	> 100	14.7	27.8	> 100	> 61.6	13.8	32.4	12.2	> 100	> 100	22.8	4.22	> 100	> 82.7	> 100
COC(=O)C1=C(O)c2ccc(Cl)cc2S(=O)(=O)N1C	> 100	> 100	> 100	> 100		> 100	> 100	> 100	> 100	> 100	> 100	> 100	> 100	> 100	> 100	> 100	> 100	> 100	> 100
CC(NC(=O)C(NC(=O)OCc1ccccc1)C(C)C)C(=O)NCC(=O)O (stereo not drawn) (Cbz-Val-Ala-Gly-OH; configuration not given here)	> 100	> 100	> 100	> 100	> 100	> 100	> 100	> 100	> 100		> 100	> 100	> 100	> 100	> 100	> 100	> 100	> 100	> 100
CCOc1nnnc2nc[nH]c12	> 100	> 100	> 100	> 100	> 100	> 100	> 100		> 100	> 100	> 100	> 100	> 100	> 100	> 100	> 100	> 100		> 100
CCOC(=O)[C@H](C)OC(=O)[C@@](C)(NC(=O)c1ccccc1C(=O)OC)[C@@H]1NC=C(C(=O)OC)CS1	> 100	> 100	> 100	> 100	> 100	> 100	> 100	> 100	> 100		> 100	> 100	> 100	> 100	> 100	> 100	> 100	> 100	> 100
CC1C=CN(N(C)C)C2=C1C(=O)c1cnccc1C2=O (stereo not drawn)	0.538	1.39	1.8	1.23	1.42	3.82	2.27		2.8	0.307	1.62	4.06	2.83	7.89	2.18	0.894	2.81	2.31	1.44
C=C(Nc1nc2ccc(C)cc2s1)C(=O)C(CC)C(=O)C(CC)CC1C(=O)NC(=O)NC1=O (stereo not drawn)	> 100	> 100	> 100	> 100	> 100	> 100			> 100	> 100	> 100	> 100	> 100	> 100	> 100	> 100	> 100	> 100	> 100
CC(=O)OCC1OC(n2c(C)cc(C)c(C#N)c2=S)C(OC(C)=O)C(OC(C)=O)C1OC(C)=O (stereo not drawn)	> 100	> 100	> 100	> 100	> 100	> 100	> 100	> 100	> 100	> 100	> 100	> 100	> 100	> 100	> 100	> 100		> 100	> 100
CC1CN=C(N(C(=O)Nc2ccc(Cl)c(Cl)c2)c2ccccc2)S1 (stereo not drawn)	> 100	> 100	> 100	> 100	> 100	> 100	> 100		> 100	> 100	> 100	> 100	> 100	> 100	> 100	50.8		> 100	> 100

From PubChem BioAssay (NCI)
